In publication PMC4629130, “Human Odorant Reception in the Common Bed Bug, Cimex lectularius” (Scientific Reports, 2015):

Experiments:
ClOr1/Orco = target: T1, ClOr1/Orco (Cimex lectularius, UniProt A0A8I6SE58); assay: two-electrode voltage clamp, Xenopus oocytes; assay type: cell-based
T1 construct: entire coding regions of ClOr1 and ClOrco in pT7Ts, cRNAs co-injected into Xenopus oocytes; heteromeric receptor channel; with Odorant receptor coreceptor

ClOr2/Orco = target: T2, ClOr2/Orco (Cimex lectularius, UniProt A0A8I6SBL2); assay: two-electrode voltage clamp, Xenopus oocytes; assay type: cell-based
T2 construct: entire coding regions of ClOr2 and ClOrco in pT7Ts, cRNAs co-injected into Xenopus oocytes; heteromeric receptor channel; clusters with Rhodnius RpOr105; with Odorant receptor coreceptor
T2 sequence (A0A8I6SBL2 1-382): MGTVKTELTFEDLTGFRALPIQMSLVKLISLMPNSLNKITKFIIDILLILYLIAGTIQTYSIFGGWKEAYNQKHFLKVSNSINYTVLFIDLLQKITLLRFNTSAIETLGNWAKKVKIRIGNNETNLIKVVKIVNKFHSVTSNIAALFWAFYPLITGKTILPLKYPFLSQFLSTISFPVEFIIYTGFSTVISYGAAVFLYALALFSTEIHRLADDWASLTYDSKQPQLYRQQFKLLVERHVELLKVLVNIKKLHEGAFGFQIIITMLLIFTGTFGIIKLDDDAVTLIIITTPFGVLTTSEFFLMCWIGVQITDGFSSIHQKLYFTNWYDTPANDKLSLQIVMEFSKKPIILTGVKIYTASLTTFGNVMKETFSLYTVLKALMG
T2 sequence (A0A0A0U7J0 1-451 partner): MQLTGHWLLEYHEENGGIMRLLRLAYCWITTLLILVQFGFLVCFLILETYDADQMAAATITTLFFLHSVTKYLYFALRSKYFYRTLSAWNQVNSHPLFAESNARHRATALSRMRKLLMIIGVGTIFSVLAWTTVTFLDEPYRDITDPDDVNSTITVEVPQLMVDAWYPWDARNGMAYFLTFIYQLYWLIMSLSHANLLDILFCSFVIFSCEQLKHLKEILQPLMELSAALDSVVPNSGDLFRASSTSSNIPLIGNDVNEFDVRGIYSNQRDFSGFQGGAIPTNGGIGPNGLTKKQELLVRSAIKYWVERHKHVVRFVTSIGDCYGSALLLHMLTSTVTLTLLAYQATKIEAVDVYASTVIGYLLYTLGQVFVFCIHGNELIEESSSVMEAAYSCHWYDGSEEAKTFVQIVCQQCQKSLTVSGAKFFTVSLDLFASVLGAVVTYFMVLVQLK

T1 sequence (A0A8I6SE58 1-379): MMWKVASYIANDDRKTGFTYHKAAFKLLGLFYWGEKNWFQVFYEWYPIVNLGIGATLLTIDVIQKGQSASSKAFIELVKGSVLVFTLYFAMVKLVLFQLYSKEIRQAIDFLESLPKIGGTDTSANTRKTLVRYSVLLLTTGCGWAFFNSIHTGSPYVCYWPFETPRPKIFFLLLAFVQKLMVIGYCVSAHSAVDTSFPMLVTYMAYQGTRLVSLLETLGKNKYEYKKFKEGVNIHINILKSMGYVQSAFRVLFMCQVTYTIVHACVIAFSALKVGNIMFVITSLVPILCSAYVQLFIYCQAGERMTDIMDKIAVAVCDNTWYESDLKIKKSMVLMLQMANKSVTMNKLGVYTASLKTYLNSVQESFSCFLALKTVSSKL
T1 sequence (A0A0A0U7J0 1-451 partner): as the sequence (A0A0A0U7J0 1-451 partner) above

SMILES | EC50 (ClOr1/Orco) [µM] | EC50 (ClOr2/Orco) [µM]
CCCCCCCCC=O [nonanal] | 0.519 | –
CCCCCCCC=O [octanal] | 3.4 | –
CCCCCCCCCC=O [decanal] | – | 6.42
